Measurements published in PubChem BioAssay (NCI).
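Dose response: 5 concentrations. Exposure: 48 h. Format: 96-well plates. Endpoint: linear interpolation; highest concentration if not reached. GI50 = concentration required for 50% inhibition of growth. TGI marks complete inhibition of growth.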

Key:
Assay in all cases: growth of human tumour cells (NCI), 48 h
HCT-116 colon = test system: HCT-116 colon
HOP-62 NSCLC = test system: HOP-62 NSCLC
HT29 colon = test system: HT29 colon
KM12 colon = test system: KM12 colon
NCI-H522 lung = test system: NCI-H522 lung
RXF 393 renal = test system: RXF 393 renal
SK-MEL-28 melanoma = test system: SK-MEL-28 melanoma
SN12C renal = test system: SN12C renal
SNB-19 CNS = test system: SNB-19 CNS

Row | SMILES | GI50 (HCT-116 colon) | TGI (HCT-116 colon) | GI50 (HOP-62 NSCLC) | TGI (HOP-62 NSCLC) | GI50 (HT29 colon) | TGI (HT29 colon) | GI50 (KM12 colon) | TGI (KM12 colon) | GI50 (NCI-H522 lung) | TGI (NCI-H522 lung) | GI50 (RXF 393 renal) | TGI (RXF 393 renal) | GI50 (SK-MEL-28 melanoma) | TGI (SK-MEL-28 melanoma) | GI50 (SN12C renal) | TGI (SN12C renal) | GI50 (SNB-19 CNS) | TGI (SNB-19 CNS)
1 | CSc1nc2sc3cc(Cl)ccc3n2c(=N)c1C#N | > 25.7 µM | > 100 µM | 45.4 µM | > 100 µM | 5.35 µM | > 100 µM | 3.78 µM | > 72 µM | 62.7 µM | > 100 µM | 19.2 µM | > 100 µM | 11.6 µM | > 100 µM | > 100 µM | > 100 µM | > 64.2 µM | > 100 µM
2 | COc1ccc(/C=C/c2n[nH]c3ccc(N4CCOC4=O)cc23)cc1 | 0.693 µM | 13.6 µM | 2.14 µM | 13 µM | 1.49 µM | > 100 µM | 1.02 µM | 27.1 µM | 1.87 µM | 14.5 µM | 1.87 µM | 3.8 µM | 3.39 µM | 12.4 µM | 2.14 µM | > 100 µM | 3.12 µM | > 100 µM
3 | NCCC(O)(P(=O)(O)O)P(=O)(O)O | > 100 µM | > 100 µM | > 100 µM | > 100 µM | > 100 µM | > 100 µM | > 100 µM | > 100 µM | > 100 µM | > 100 µM | – | – | > 100 µM | > 100 µM | > 100 µM | > 100 µM | > 100 µM | > 100 µM
4 | COc1cc2nc(Nc3cccc(F)c3)nc(Nc3cc(C)[nH]n3)c2cc1OC | – | – | 1.87 µM | 3.62 µM | 1.99 µM | 4.93 µM | 1.64 µM | 3.32 µM | 1.92 µM | 4.94 µM | 1.81 µM | 3.22 µM | 1.77 µM | 3.2 µM | 1.89 µM | 3.79 µM | 1.95 µM | 4.05 µM
5 | C=C(C)[C@@H]1CC[C@]2(C)[C@H](CC[C@@H]3[C@H]4[C@H]5OC[C@@]4(CCC5(C)C)CC[C@]32C)[C@@]1(C)CCCN | – | – | 2 µM | 4.42 µM | – | – | 1.78 µM | 3.33 µM | – | – | 1.64 µM | 3.07 µM | 1.83 µM | 3.36 µM | 1.63 µM | 3.2 µM | 1.78 µM | 3.24 µM
6 | CCn1cnc2c(Nc3cccc(Cl)c3)nc(N[C@@H]3CCCC[C@@H]3N)nc21 | 1.12 µM | 2.87 µM | 1.52 µM | 3.71 µM | 1.91 µM | 5.87 µM | 0.733 µM | 2.67 µM | 1.64 µM | 3.8 µM | 1.35 µM | 2.89 µM | 1.68 µM | 3.42 µM | 2.08 µM | 7.62 µM | 2.07 µM | 8.17 µM
7 | CCOC(=O)c1sc(Nc2ccc(Cl)cc2)nc1C | – | – | 1.89 µM | 5.06 µM | 2.05 µM | 4.09 µM | – | – | 1.18 µM | 3.57 µM | 2.11 µM | 4.75 µM | 1.96 µM | 4.23 µM | 1.75 µM | 4.81 µM | 2.08 µM | 6.25 µM
